In publication PMC9738062, “Selectively Halogenated Flavonolignans—Preparation and Antibacterial Activity” (International Journal of Molecular Sciences, 2022):

Key:
[1] = ABTS cation radical scavenging; conditions: vitamin C equivalent antioxidant capacity
Protocol: (§1) To further elucidate how halogenation affects other properties of the flavonoids studied, their 2,2′-azino-bis-(3-ethylbenzothiazoline-6-sulfonic acid) cation (ABTS) and 1,1-diphenyl-2-picrylhydrazyl (DPPH) radical scavenging, the Folin–Ciocalteu reagent (FCR) reducing, the ferric-reducing antioxidant power (FRAP), and the anti-lipoperoxidation activities were evaluated by in vitro methods (Supplementary Information Tables S1 and S2).
(§2) The antiradical activity was evaluated by the ability to scavenge ABTS and DPPH radicals. Reducing capacity was assessed by the ability to reduce the Folin–Ciocalteu reagent (FCR) and ferric ions (FRAP). The ability to inhibit lipid peroxidation of pooled male rat microsomal liver membranes induced by tert-butyl hydroperoxide was also evaluated and the results were expressed as IC50 values.

[2] = system: doxorubicin-resistant human ovarian carcinoma (HOC/DOX); experiment: Cytotoxicity (resazurin assay, 72 h); type: cell-based; conditions: for IC50: Homo sapiens, 72 h, resazurin assay; for SI (selectivity index): ratio IC50 for HDF / IC50 for HOC/DOX
Protocol: (§3) The cytotoxicity of flavonoids and their halogenated derivatives was determined as their ability to decrease the viability of human dermal fibroblasts (HDF) and doxorubicin-resistant human ovarian carcinomas (HOC/DOX). Both cell lines were cultivated in Dulbecco’s Modified Eagle’s Medium supplemented with fetal bovine serum (FBS, 10% v/v) and 1 × antibiotic antimycotic solution and incubated at 37 °C in the atmosphere of 5% CO2. The experiment was performed according to a previously published method. Briefly, 1 × 10^5 cells/mL were seeded into a 96-well plate (100 µL/well). After 24 h, flavonoids and their derivatives were administered at the concentration range of 31.25–500 µM. After 72 h, the viability was determined by resazurin assay (0.03 mg/mL of resazurin in PBS), where the fluorescence was measured after 2 h of incubation by the SpectraMax i3x microplate reader at a wavelength of 560/590 nm (excitation/emission). The concentration inhibiting half of the population (IC50) was determined using nonlinear regression in GraphPad Prism software. The selectivity index was calculated as the ratio between the IC50 for HDF (control, non-cancerous cells) and the IC50 for HOC/DOX (cancer cells).

[3] = system: human dermal fibroblasts (HDF); experiment: Cytotoxicity (resazurin assay, 72 h); type: cell-based; conditions: Fibroblast
Protocol: as §3

[4] = system: lipopolysaccharide-stimulated macrophages (RAW 264.7); experiment: Inhibition of nitric oxide production (Griess reagent); type: cell-based, murine; conditions: Mus musculus, RAW264.7; LPS 100 ng/mL, 24 h; highest tested concentration 100 µM; read-out: NO Production IC50
Protocol: The anti-inflammatory activity of the tested flavonolignans was determined as the ability to reduce nitric oxide production by murine macrophages (RAW 264.7) stimulated by bacterial lipopolysaccharides, as previously described. […] For the experiment, 1 × 10^6 cells/mL was seeded into the 96-well plate (100 µL/well). […] After 24 h, the medium was mixed with Griess reagent (0.04 g/mL), prepared freshly in deionized water at the ratio of 1:1. The absorbance was measured after 15 min at 540 nm by the SpectraMax i3x microplate reader. Cell viability was determined by resazurin assay.

[5] = system: Vibrio campbellii BAA 1118 (AI-1); experiment: microbe, parasite or virus in culture; type: cell-based; conditions: for EC50: Vibrio campbellii, BAA1118, 16 h, read-out: EC50 (concentration that halved the communication); for SI (selectivity index): ratio IC50 (viability) / EC50 (communication), BAA 1118
Excerpt: (§4) Commercially available strains of Vibrio campbellii were used to evaluate the ability of flavonoids and their derivatives to inhibit bacterial quorum sensing. V. campbellii uses two types of autoinducing molecules for its communication—N-acyl-homoserine lactones (Autoinducer I, AI-1, strain BAA 1118) and furanosyl borate diester (Autoinducer II, AI-2, strain BAA 1119). AI-1-based communication is mainly used by Gram-negative bacteria, while AI-2-based communication is found in both Gram-negative and Gram-positive bacteria. The mutant strains of V. campbellii BA1118 and BA1119 respond only to AI-1 or AI-2, respectively, and the response to the respective AI concentration is measured as luminescence. The higher the AI concentration, the higher the luminescence signal. The ability to inhibit the communication was expressed as the selectivity index (SI), calculated as the ratio between the concentration that halved the viability (IC50) and the concentration that halved the communication (EC50) of the respective V. campbellii strains. […] The antimicrobial activity of quorum-sensing inhibitors is undesirable because it creates a selection pressure and can lead to the development of resistance.
(§5) The inhibition of bacterial extracellular communication was measured using Vibrio campbellii strains BAA-1118 and BAA-1119. The experiment was performed according to the methods of Szemerédi et al.. Briefly, 5 × 10^5 CFU/mL (colony-forming units per milliliter) were seeded in an Autoinducer Bioassay medium (NaCl 17.5 g/L, MgSO4 12.3 g/L, Casamino acids 2 g/L, 10 mL of 1 M potassium phosphate pH 7.0, 10 mL of 0.1 M L-arginine, and 10 mL of glycerol in 970 mL of deionized water) in a 96-well plate. Immediately, the tested compounds were added at the final concentration of 0.2–200 µM and luminescence was recorded for 16 h by a SpectraMax i3x microplate reader set at 30 °C, an integration time of 10,000 ms, and shaking for 60 s before measurement. […] The selectivity index was calculated as the […]. The EC50 and IC50 were calculated using GraphPad Prism software version 5.00 for Windows with a nonlinear regression curve fit.

[6] = system: Vibrio campbellii BAA 1119 (AI-2); experiment: microbe, parasite or virus in culture; type: cell-based; conditions: for EC50: Vibrio campbellii, BAA1119, 16 h, read-out: EC50 (concentration that halved the communication); for SI (selectivity index): ratio IC50 (viability) / EC50 (communication), BAA 1119
Excerpt: as §4, §5

[7] = system: Vibrio campbellii BAA 1118 (AI-1); experiment: Viability of the quorum-sensing reporter culture (resazurin assay), AI-1 strain; type: cell-based; conditions: BAA1118, V. campbellii BAA 1118, resazurin assay, read-out: IC50 (concentration that halved the viability)
Excerpt: as §4, §5

[8] = system: Vibrio campbellii BAA 1119 (AI-2); experiment: Viability of the quorum-sensing reporter culture (resazurin assay), AI-2 strain; type: cell-based; conditions: BAA1119, V. campbellii BAA 1119, resazurin assay, read-out: IC50 (concentration that halved the viability)
Excerpt: as §4, §5

DPPH radical scavenging = conditions: 1,1-diphenyl-2-picrylhydrazyl radical scavenging
Protocol: as §1, §2

[9] = system: pooled male rat microsomal liver membranes; experiment: Inhibition of lipid peroxidation induced by tert-butyl hydroperoxide; type: biochemical; conditions: male rat microsomes, read-out: ILP IC50
Protocol: as §2

[10] = Folin-Ciocalteu reagent reduction; conditions: gallic acid equivalents
Protocol: as §1, §2

[11] = Ferric reducing antioxidant power (FRAP); conditions: Fe2+ equivalents
Protocol: as §1, §2

[12] = system: multidrug-resistant P. aeruginosa; experiment: Sensitization of antibiotic-resistant bacteria (compound plus breakpoint antibiotic concentration); type: cell-based, Pseudomonas aeruginosa; conditions: flavonoid 40 µM, 24 h; for Effect on viability in combination with colistin: colistin 2 mg/L; for Effect on viability in combination with imipenem: imipenem 4 mg/L; on Effect on viability in combination with imipenem: key: -: no effect (100% viability) was observed up to the highest flavonolignan concentration tested (>40 µM); reversion of resistance: the compound reversed the resistant phenotype to a sensitive one
Protocol: (§6) Clinically relevant antibiotics were selected for sensitization testing according to the European Committee on Antimicrobial Susceptibility Testing (EUCAST). Neither colistin and imipenem at breakpoint concentrations (according to EUCAST, […] and […]) affected the growth of the multidrug-resistant clinical strain of P. aeruginosa. Similarly, neither chloramphenicol and gentamicin at breakpoint concentrations ([…], respectively) affected the multidrug-resistant clinical strain of S. aureus. Flavonoids and their derivatives (1–40 µM) were used in combination therapy, along with the breakpoint concentration of antibiotics. After co-incubation, the minimum inhibitory concentration of flavonoids inhibiting the visible growth of bacteria was determined (Table 2).
(§7) Clinical isolates of P. aeruginosa and S. aureus were obtained from the General University Hospital in Prague (Prague, Czech Republic). P. aeruginosa was resistant to ciprofloxacin, oxacillin, ticarcillin, colistin, gentamicin, and imipenem. S. aureus was resistant to ciprofloxacin, gentamicin, erythromycin, chloramphenicol, clindamycin, oxacillin, cefotaxime, and vancomycin. Bacteria were cultivated in Mueller–Hinton broth (MH broth, Merck). The susceptibility of the bacteria was evaluated by the minimum inhibitory concentrations (MIC). The MIC of derivatives in the presence of the antibiotic cut-off concentration was determined according to ISO 20776-1: 2020. The antibiotic cut-off concentration was chosen according to the European Committee on Antimicrobial Susceptibility Testing (EUCAST, Clinical breakpoints—bacteria (ver. 11.0), 1 January 2021). The 40 µM concentration of the derivatives was chosen as the highest concentration for the tests. Cell viability was determined by measuring absorbance (A590 nm) after 24 h incubation at 37 °C, 150 rpm.

[13] = system: multidrug-resistant S. aureus; experiment: as above; type: cell-based, Staphylococcus aureus; conditions: flavonoid 40 µM, 24 h; for Effect on viability in combination with chloramphenicol: chloramphenicol 8 mg/L
Protocol: as §6, §7

SMILES	ABTS [CEAC] [1] [CEAC]	IC50 [2] [µM]	SI (selectivity index) [2]	IC50 [3] [µM]	IC50 [4] [µM]	EC50 [5] [µM]	SI (selectivity index) [5]	EC50 [6] [µM]	SI (selectivity index) [6]	IC50 [7] [µM]	IC50 (DPPH radical scavenging) [µM]	FCR [GAE] [10] [GAE]	FRAP [Fe2+eq] [11] [Fe2+eq]	Effect on viability in combination with colistin [12]	Effect on viability in combination with imipenem [12]	Effect on viability in combination with chloramphenicol [13]	also measured
O=C1O[C@H]([C@@H](O)CO)C(O)=C1O [vitamin C, reference compound]	1.01																
COc1ccc2c(c1)c(CC(=O)O)c(C)n2C(=O)c1ccc(Cl)cc1 [Indomethacin, reference compound]		17.1 ± 0.6	12.94	222	51.3 ± 0.6												
O=c1[nH]cc(F)c(=O)[nH]1 [5-Fluorouracil, reference compound]						0.00039	1.73 ± 0.05	0.00044	7.8 ± 0.5	0.00068							IC50 [8]: 0.00341 µM
Cc1c(C)c2c(c(C)c1O)CCC(C)(C(=O)O)O2 (stereo not drawn) [Trolox, reference compound]											3.5						IC50 [9]: 32.7 ± 2.4 µM
COc1cc([C@@H]2Oc3cc([C@H]4Oc5c(I)c(O)cc(O)c5C(=O)[C@@H]4O)ccc3O[C@H]2CO)ccc1O [compound 24, 8-iodosilybin B]	0.47 ± 0.04										97.1	1.01 ± 0.02	0.079 ± 0.002				
CC1(C)[C@H](C(=O)O)N2C(=O)C[C@H]2S1(=O)=O [Sulbactam, reference compound]														-	-	reversion of resistance	Effect on viability in combination with gentamicin ([13]; gentamicin 1 mg/L): -
O=C(O)c1cc(O)c(O)c(O)c1 [gallic acid, reference compound]												1.00					
COc1cc([C@@H]2Oc3cc([C@H]4Oc5cc(O)c(Cl)c(O)c5C(=O)[C@@H]4O)ccc3O[C@H]2CO)ccc1O [compound 28, 6-Chlorosilybin B]	0.71 ± 0.02	272	0.54	147	52.4 ± 4.5	114 ± 5	1.1 ± 0.1	3.2 ± 0.2	≥62.6 ± 3.6	130 ± 5.9	> 500	1.25 ± 0.01	0.050 ± 0.002	-	-	-	IC50 [8]: > 200 µM
COc1cc([C@H]2Oc3cc([C@H]4Oc5c(I)c(O)c(I)c(O)c5C(=O)[C@@H]4O)ccc3O[C@@H]2CO)ccc1O [compound 25, 6,8-diiodosilybin A]	0.41 ± 0.01										> 500	0.95 ± 0.01	0.053 ± 0.003				
COc1cc([C@@H]2Oc3cc([C@H]4Oc5c(Br)c(O)cc(O)c5C(=O)[C@@H]4O)ccc3O[C@H]2CO)ccc1O [compound 20, 8-bromosilybin B]	0.47 ± 0.01	227	0.43	97.9 ± 4.4	38 ± 2.2	44.2 ± 0.7	2.9 ± 0.1	4.7 ± 0.2	≥42.9 ± 2.1	127 ± 4	> 500	1.10 ± 0.02	0.056 ± 0.002	-	-	-	
[Fe+2] [Fe2+, reference compound]													1.01				
COc1cc([C@@H]2Oc3cc([C@H]4Oc5c(I)c(O)c(I)c(O)c5C(=O)[C@@H]4O)ccc3O[C@H]2CO)ccc1O [compound 26, 6,8-diiodosilybin B]	0.48 ± 0.01										249	0.84 ± 0.04	0.048 ± 0.001				
COc1cc([C@H]2Oc3cc([C@H]4Oc5c(Br)c(O)cc(O)c5C(=O)[C@@H]4O)ccc3O[C@@H]2CO)ccc1O [compound 19, 8-bromosilybin A]	0.68 ± 0.03	202	0.38	77.4 ± 1.1	36.4 ± 1.7	33.9 ± 1.8	3.4 ± 0.3	4.6 ± 0.3	≥43.1 ± 2.6	115 ± 5.4	> 500	1.01 ± 0.02	0.057 ± 0.002	-	-	-	IC50 [8]: > 200 µM
